Reference: patent US20230295234A1, “ANTIMICROBIAL PEPTIDOMIMETICS” (SPEXIS AG, priority 2020, published 2023)
Like-named read-outs stand apart in the source and are kept apart here. Bridge positions count the residues as written; N and C are the ends. Square brackets hold non-standard residues; d marks the D form. Peptide text beside a SMILES is read from it. Gly(N-2-aminoethyl) = NCCNCC(=O)O; Cha = N[C@@H](CC1CCCCC1)C(=O)O; Pen = CC(C)(S)[C@H](N)C(=O)O; dDab = NCC[C@@H](N)C(=O)O; Dab = NCC[C@H](N)C(=O)O

Columns and labels:
[1] = tested on: Escherichia coli ATCC 25922
Summary of the method: (§1)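 First, bacterial colonies are suspended in saline and adjusted to 0.5 McFarland. Next, the suspension is diluted into cation-adjusted Mueller-Hinton II broth (approx. 5×10^5 CFU/mL). Finally, it is added to two-fold serially diluted peptide, with polysorbate 80 at 0.002% final.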

[2] = tested on: Escherichia coli MCR-1 Af 45
Summary of the method: as §1

[3] = tested on: Klebsiella pneumoniae SSI3010
Summary of the method: as §1

[4] = tested on: human red blood cells (hRBC); assay: Hemolysis of human red blood cells; format: cell-based
Summary of the method: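 Percent hemolysis is OD540 of peptide-treated supernatant relative to water-lysed cells. Each peptide was tested at 200 μg/mL against 20% (v/v) washed human erythrocytes. Incubation was 1 h at 37 °C, 300 rpm.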

[5] = Mueller-Hinton broth II, 18-20 hours at 35° C.

| SMILES | Escherichia coli ATCC 25922 MIC ([1]; ATCC 25922) | Escherichia coli MCR-1 Af 45 MIC [2, 5] | Klebsiella pneumoniae SSI3010 MIC ([3]; SSI3010) | Hemolysis at 0.2 g/L ([4]; red cells of human, 1 h) | Escherichia coli MCR-1 Af 45 MIC ([2]; MCR-1 Af 45) | Escherichia coli ATCC 25922 MIC [1, 5] | Klebsiella pneumoniae SSI3010 MIC [3, 5] | Hemolysis at 0.2 g/L ([4]; 20% hRBC, 1 h at 37° C.) |
| --- | --- | --- | --- | --- | --- | --- | --- | --- |
| CC[C@H](C)[C@H](NC(=O)[C@@H](NC(=O)[C@@H]1CCCN1C(=O)[C@@H](NC(=N)N)C(C)C)[C@@H](C)CC)C(=O)N[C@@H](Cc1ccc(O)cc1)C(=O)N[C@H]1CSSC[C@@H](C(=O)N[C@@H](CCN)C(=O)N[C@@H](CCCNC(=N)N)C(=O)N[C@@H](Cc2ccc(O)cc2)C(=O)O)NC(=O)[C@H](CCCCN)NC(=O)[C@@H](CCN)NC(=O)[C@H]([C@@H](C)O)NC(=O)[C@H](CCN)NC(=O)[C@H](CCCNC(=N)N)NC(=O)[C@H](CC(N)=O)NC1=O [Example 186] (HELM PEPTIDE1{[CC(C)[C@H](NC(=N)N)C(=O)[*:2]].P.I.I.Y.C.N.R.[Dab].T.[NCC[C@@H](N[*:1])C(=O)[*:2]].K.C.[Dab].R.Y}$PEPTIDE1,PEPTIDE1,6:R3-13:R3$$$V2.0) | 0.125 µg/mL | 0.125 µg/mL | ≤0.25 µg/mL | 0% | – | – | – | – |
| CC[C@H](C)[C@H](NC(=O)CN(CCN)C(=O)[C@@H](NC(=O)CNCCN)C(C)C)C(=O)N[C@H](C(=O)N[C@@H](Cc1ccc(O)cc1)C(=O)N[C@@H]1C(=O)N[C@@H](CC(N)=O)C(=O)N[C@@H](CCCNC(=N)N)C(=O)N[C@@H](CCN)C(=O)N[C@@H]([C@@H](C)O)C(=O)N[C@H](CCN)C(=O)N[C@@H](CCCCN)C(=O)N[C@H](C(=O)N[C@@H](CCN)C(=O)N[C@@H](CCCNC(=N)N)C(=O)N[C@@H](CC2CCCCC2)C(=O)O)CSSC1(C)C)[C@@H](C)CC [Example 21, Ndab-Val-Ndab-Ile-Ile-Tyr-Pen-Asn-Arg-Dab-Thr-^DDab-Lys-Cys-Dab-Arg-Cha] (H-[Gly(N-2-aminoethyl)]V[Gly(N-2-aminoethyl)]IIY[Pen]NR[Dab]T[dDab]KC[Dab]R[Cha]-OH; disulfide 7-14) | 0.0625 µg/mL | – | 0.25 µg/mL | 0% | ≤0.03125 µg/mL | – | – | – |
| CC[C@H](C)[C@H](NC(=O)[C@@H](NC(=O)[C@@H]1C[C@@H](O)CN1C(=O)[C@@H](N)C(C)C)[C@@H](C)CC)C(=O)N[C@@H](Cc1ccc(O)cc1)C(=O)N[C@@H]1C(=O)N[C@@H](CC(N)=O)C(=O)N[C@@H](CCCNC(=N)N)C(=O)N[C@@H](CCN)C(=O)N[C@@H]([C@@H](C)O)C(=O)N[C@H](CCN)C(=O)N[C@@H](CCCCN)C(=O)N[C@H](C(=O)N[C@@H](CCN)C(=O)N[C@@H](CCCNC(=N)N)C(=O)N[C@@H](Cc2ccc(O)cc2)C(=O)O)CSSC1(C)C [Example 147] (HELM PEPTIDE1{V.[Hyp].I.I.Y.[Pen].N.R.[Dab].T.[NCC[C@@H](N[*:1])C(=O)[*:2]].K.C.[Dab].R.Y}$PEPTIDE1,PEPTIDE1,6:R3-13:R3$$$V2.0) | – | 0.0625 µg/mL | – | – | – | 0.125 µg/mL | 0.25 µg/mL | 0% |
| CC[C@H](C)[C@H](NC(=O)[C@@H]1C[C@@H](O)CN1C(=O)[C@@H](N)C(C)C)C(=O)N[C@H](C(=O)N[C@@H](Cc1ccc(O)cc1)C(=O)N[C@@H]1C(=O)N[C@@H](CC(N)=O)C(=O)N[C@@H](CCCNC(=N)N)C(=O)N[C@@H](CCN)C(=O)N[C@@H]([C@@H](C)O)C(=O)N[C@H](CCN)C(=O)N[C@@H](CCCCN)C(=O)N[C@H](C(=O)N[C@@H](CCN)C(=O)N[C@@H](CCN)C(=O)N[C@@H](Cc2ccc(O)cc2)C(=O)O)CSSC1(C)C)[C@@H](C)O [Example 177] (HELM PEPTIDE1{V.[Hyp].I.T.Y.[Pen].N.R.[Dab].T.[NCC[C@@H](N[*:1])C(=O)[*:2]].K.C.[Dab].[Dab].Y}$PEPTIDE1,PEPTIDE1,6:R3-13:R3$$$V2.0) | 0.125 µg/mL | 0.125 µg/mL | 0.25 µg/mL | 0% | – | – | – | – |
| CC[C@H](C)[C@H](NC(=O)[C@@H]1C[C@@H](N)CN1C(=O)[C@@H](NC(=O)[C@@H]1CCCN1C(=O)[C@H](CCCCN)NC(=O)[C@@H](N)CCCCN)C(C)C)C(=O)N[C@@H](CCCNC(=N)N)C(=O)N[C@@H](Cc1ccc(O)cc1)C(=O)N[C@@H]1C(=O)N[C@@H](CC(N)=O)C(=O)N[C@@H](CCCNC(=N)N)C(=O)N[C@@H](CCN)C(=O)N[C@@H]([C@@H](C)O)C(=O)N[C@H](CCN)C(=O)N[C@@H](CCCCN)C(=O)N[C@H](C(=O)N[C@@H](CCN)C(=O)N[C@@H](CCCNC(=N)N)C(=O)N[C@@H](Cc2ccc(O)cc2)C(=O)O)CSSC1(C)C [Example 115, Lys-Lys-Pro-Val-Pro((4R)NH2)-Ile-Arg-Tyr-Pen-Asn-Arg-^Dab-Thr-^DDab-Lys-Cys-Dab-Arg-Tyr] (HELM PEPTIDE1{K.K.P.V.[N[C@@H]1C[C@@H](C(=O)[*:2])N([*:1])C1].I.R.Y.[Pen].N.R.[Dab].T.[NCC[C@@H](N[*:1])C(=O)[*:2]].K.C.[Dab].R.Y}$PEPTIDE1,PEPTIDE1,9:R3-16:R3$$$V2.0) | 0.0625 µg/mL | – | 0.25 µg/mL | 0% | 0.125 µg/mL | – | – | – |
| CCCC[C@H](NC(=O)[C@H](CCCNC(=N)N)NC(=O)[C@H](CCN)NC(=O)[C@@H]1CSSC(C)(C)[C@H](NC(=O)[C@H](Cc2ccc(O)cc2)NC(=O)[C@@H](NC(=O)[C@@H](NC(=O)[C@@H]2CCCN2C(=O)[C@@H](NC(=O)CNCCN)C(C)C)[C@@H](C)CC)[C@@H](C)CC)C(=O)N[C@@H](CC(N)=O)C(=O)N[C@@H](CCCNC(=N)N)C(=O)N[C@@H](CCN)C(=O)N[C@@H]([C@@H](C)O)C(=O)N[C@H](CCN)C(=O)N[C@@H](CCCCN)C(=O)N1)C(=O)O [Example 6, Ndab-Val-Pro-Ile-Ile-Tyr-Pen-Asn-Arg-Dab-Thr-^DDab-Lys-Cys-Dab-Arg-Nle] (HELM PEPTIDE1{[NCCNCC(=O)[*:2]].V.P.I.I.Y.[Pen].N.R.[Dab].T.[NCC[C@@H](N[*:1])C(=O)[*:2]].K.C.[Dab].R.[Nle]}$PEPTIDE1,PEPTIDE1,7:R3-14:R3$$$V2.0) | 0.125 µg/mL | – | 0.25 µg/mL | 0% | 0.125 µg/mL | – | – | – |
| CC[C@H](C)[C@H](NC(=O)[C@@H]1C[C@@H](O)CN1C(=O)[C@@H](N)C(C)C)C(=O)N[C@@H](CC(N)=O)C(=O)N[C@@H](Cc1ccc(O)cc1)C(=O)N[C@@H]1C(=O)N[C@@H](CC(N)=O)C(=O)N[C@@H](CCCNC(=N)N)C(=O)N[C@@H](CCN)C(=O)N[C@@H]([C@@H](C)O)C(=O)N[C@H](CCN)C(=O)N[C@@H](CCCCN)C(=O)N[C@H](C(=O)N[C@@H](CCN)C(=O)N[C@@H](CCCNC(=N)N)C(=O)N[C@@H](Cc2ccc(O)cc2)C(=O)O)CSSC1(C)C [Example 157] (HELM PEPTIDE1{V.[Hyp].I.N.Y.[Pen].N.R.[Dab].T.[NCC[C@@H](N[*:1])C(=O)[*:2]].K.C.[Dab].R.Y}$PEPTIDE1,PEPTIDE1,6:R3-13:R3$$$V2.0) | 0.125 µg/mL | 0.125 µg/mL | 0.5 µg/mL | 0% | – | – | – | – |
